Reference: patent publication US20110021765A1, “FLUORINATED LANTHANIDE PROBES FOR 19F MAGNETIC RESONANCE APPLICATIONS” (priority 2007, published 2011)
Where “and” joins values, the source holds several entries; their conditions need not be identical. Equal entries are not always repeated.

What was measured:
Type in all cases: physicochemical
[1] = 19F NMR chemical shifts and longitudinal relaxation rates at 188 MHz (4.7 T, 298K); conditions: for Longitudinal relaxation rate R1 ortho CF3 group / Longitudinal relaxation rate R1 other CF3 group / Limiting 19F chemical shift δF ortho CF3 group / Limiting 19F chemical shift δF other CF3 group if present: 188 MHz; for Limiting 19F chemical shift δF ortho CF3 group / Limiting 19F chemical shift δF other CF3 group if present: pH 5.5, referred to NaCF3CO2 δF −76.1 ppm
Protocol: ^19F NMR chemical shifts and longitudinal relaxation rates for various lanthanide complexes of L^1, L^2 and L^3 were measured at 188 MHz (4.7 T, 298K).

[2] = Comparative 19F NMR signal intensity of paramagnetic complexes versus diamagnetic [YL^1]; conditions: 188 MHz (4.7 T), 298K
Protocol: A comparative analysis examined the ortho-CF3 resonance in ^19F NMR spectra of the diamagnetic Y complex, [YL^1] (R1 0.93 s^−1, {linewidth, ω1/2=2 Hz}) and the terbium (R1 90 s^−1 {.ω1/2 90 Hz} and Dy (R1 77 s^−1 {.ω1/2 35 Hz}) analogues. Using a relaxation delay of 3 times T1, ^19F spectra were acquired over a common time interval of 30 minutes (2 mM complex, 188 MHz (4.7 T), 298K, typical S/N ratio per mM was 100:1). The relative signal intensity ratios per mM of complex (peak height times peak width at half height; processing used a line-broadening function equal to half of the observed linewidth, for the given complex resonance) for observation of the major ortho-CF3 resonance in [TmL^1], [DyL^1] and [TbL^1] versus the diamagnetic analogue, [YL^1], were 52:1 22:1 and 41:1 respectively. This is consistent with the ability to increase the number of scans acquired for the faster relaxing CF3 resonance in the paramagnetic complexes.

[3] = Eu luminescence emission intensity ratio versus pH; conditions: 298K, H2O, 0.1 M NaCl
[4] = 19F NMR pH titration, acid-base equilibrium fit; conditions: ratio of integrated 19F intensities −59/−53 and −65/−64 ppm
Source text: Solid lines: least-squares fits to the fast-exchange acid-base equilibrium equation for the chemical shift.
Solid lines: least-squares fits to the slow-exchange acid-base equilibrium equation for the NMR line intensity.
The NH group of [Ln.L^4] deprotonates in alkaline conditions, causing the CF3 group of [Ho.L^4] to shift from −55.1 ppm to −36.8 ppm under basic conditions (see FIG. 3). Because the acid-base equilibrium is fast in this system ([…] lanthanide re-coordination involved), only one signal is observed, with the chemical shift corresponding to the weighted average of the chemical shifts of the individual forms.
The higher pKa values in biofluids are the result of additional stabilization of the acidic form by carbonate coordination (see FIG. 4) (S. Aime, A. Barge, M. Botta, J. A. K. Howard, R. Kataky, M. P. Lowe, J. M. Moloney, D. Parker and A. S. de Sousa, Chem. Commun., 1999, 1047); (Y. Bretonniere, M. J. Cann, D. Parker and R. J. Slater, Org. Biomol. Chem., 2004, 2, 1624). The basic form exists as a mixture of two diastereomers, defined by the R or S configuration at the sulphur atom (Scheme 3). The experimental ratio is 6:1 (298 K, pH=8), resonating at −98 and −112 ppm respectively. […]

[5] = N-protonated complex, pH 5.5, 188 MHz

Row | δF ortho CF3 group, N-protonated complex (value in parentheses) [1, 5] [ppm] | δF other CF3 group, N-protonated complex (value in parentheses) [1, 5] [ppm] | R1 ortho CF3 group, N-protonated complex (value in parentheses) [1, 5] [s⁻¹] | R1 other CF3 group, N-protonated complex (value in parentheses) [1, 5] [s⁻¹] | Apparent protonation constant from Eu emission band intensity ratio [3] | Complex protonation constant pKMLH [4] | Compound | Longitudinal relaxation rate R1 ortho CF3 group ([1]; pH 5.5) | Longitudinal relaxation rate R1 other CF3 group ([1]; pH 5.5) [s⁻¹] | Limiting 19F chemical shift δF ortho CF3 group [1] [ppm] | Limiting 19F chemical shift δF other CF3 group if present [1] [ppm] | Longitudinal relaxation rate R1 ortho CF3 group ([1]; pH 5.5, listed as yttrium (III) complex of ligand L^1) [s⁻¹] | Linewidth ω1/2 of ortho-CF3 resonance [2] [Hz]
1 |  |  |  |  |  |  | O=C([O-])CN1CCN(CC(=O)[O-])CCN(CC(=O)Nc2ccc(C(F)(F)F)cc2C(F)(F)F)CCN(CC(=O)[O-])CC1.[Tm+3] [[TmL^1]] | 16 s⁻¹ | 5.6 | −79.6 | −55 |  | 
2 |  |  |  |  |  |  | O=C([O-])CN1CCN(CC(=O)[O-])CCN(CC(=O)Nc2ccc(C(F)(F)F)cc2C(F)(F)F)CCN(CC(=O)[O-])CC1.[Y+3] [[YL^1]] | 0.93 s⁻¹ and 0.9 s⁻¹ | ~0.9 | −61.3 | −63.1 | ~0.9 | 2
3 | −59 | −64 |  |  |  |  | O=C([O-])CN1CCN(CC[N-]S(=O)(=O)c2cc(C(F)(F)F)ccc2C(F)(F)F)CCN(CC(=O)[O-])CCN(CC(=O)[O-])CC1.[Tb+3] [[TbL^2]^−] | 71 s⁻¹ | 23 | −159 | −45 |  | 
4 |  |  |  |  |  |  | O=C([O-])CN1CCN(CC(=O)[O-])CCN(CC(=O)Nc2ccc(C(F)(F)F)cc2C(F)(F)F)CCN(CC(=O)[O-])CC1.[Yb+3] [[YbL^1]] | 4.6 s⁻¹ | 1.7 | −65.4 | −59.6 |  | 
5 | −59 | −64 | 2.2 | 1.2 | 5.5 | 5.5 (±0.05) | O=C([O-])CN1CCN(CC[N-]S(=O)(=O)c2cc(C(F)(F)F)ccc2C(F)(F)F)CCN(CC(=O)[O-])CCN(CC(=O)[O-])CC1.[Eu+3] [[EuL^2]^−] | 2.5 s⁻¹ | 1.5 | −53 | −65 |  | 
